# Marks after values point to notes of the source that are not given here.
# Key:
# [1] = tested on: retinal ganglion cells and optic nerve axons; test: optic nerve transection: retinal ganglion cell survival, optic nerve axon preservation and myelination 90 days after transection; type: in vivo, rat; conditions: for RGC Counts: mean density + SEM of Fluoro-gold labeled RGC in 400 μm × 400 μm gridfields; for ON Axon density: RT97 labeled axons in 200 μm × 200 μm region, mean + SEM; for Proximal optic nerve myelin basic protein Density: % areal coverage of optic nerve cross section, ± SEM; for increased ON axon density: adjusted for optic nerve diameter; for ON axon Count: calculated by multiplying axonal density by ON area; for Distal optic nerve myelin basic protein Density (myelin level): cross sectional area multiplied by myelin density
# Source text: All eyes and optic nerves stumps were removed.
# [2] = tested on: retinal ganglion cells and optic nerve; test: retinal ischemia: degeneration of retinal ganglion cells, optic nerve axons and myelin; type: in vivo, rat
# Source text: Retinal ganglion cells were retrogradely labeled in adult rats by bilateral injection of fluorogold in their lateral geniculate nuclei. Labeled ganglion cells in the normal rat retina appear as white profiles against the dark background (FIG. 1A). Complete retinal ischemia was produced by infusing normal saline solution into the retinal vitreous cavity of each eye until the intraocular pressure exceeded arterial blood pressure. 28 days after the ischemic episode extensive degeneration of retinal ganglion cell was evidenced by massive reduction in the density of fluorogold labeled cells (FIG. 1B).
# retina = test: streptozotocin induced diabetes: retinal neovascularization and neuronal loss; type: in vivo; conditions: 28 day treatment beginning 8 weeks after onset of streptozotocin induced diabetes
# [3] = tested on: retinal ganglion cell axons; test: protection of retinal ganglion cell axons from degeneration 14 days after optic nerve transection (RT97); type: in vivo; conditions: ± SEM
# Source text: Efficacy of represetative compounds from different immunophilin ligand series in protecting retinal ganglion cell axons from degeneration following optic nerve transection set forth in Table 9.
# Efficacy of representative compounds from different immunophilin ligand series in protecting retinal ganglion cell axons from degeneration following optic nerve transection
# Clearance = type: in vitro ADME; conditions: Table 9 comments
# [4] = tested on: streptozotocin-induced diabetic rat; test: sensory neuropathy in streptozotocin-induced diabetes: hot plate and tail flick; type: in vivo; conditions: lesioned animals treated for 6 weeks at 10 mg/kg s.c., treatment started six weeks after streptozotocin
# Experimental: The procedure involved using Male Wistar rats which were given a single injection of streptozotocin (65 mg/kg i.v.). Blood glucose levels were determined weekly for the first three weeks and on the last week of the experiment. Animals were evaluated weekly for signs of sensory neuropathy using the conventional hot plate and tail flick apparatus test procedures.
# aged mice = test: Morris watermaze spatial learning and memory in aged rodents; type: in vivo, mouse; conditions: aged impaired C57BL/6N-Nia mice, 10 mg/kg daily, retention testing after 3 weeks of dosing
# Source text: The Morris watermaze is widely used for assessing spatial memory formation and retention in experimental animals. The test depends on the animal's ability to utilize spatial visual information in order to locate a submerged escape platform in a water tank. It is important that the tank itself be as devoid of specific visual features as possible-thus, it is always circular in shape, the sides are kept smooth and in uniform dull colors, and the water is rendered opaque with nontoxic watercolor pigment or powdered milk. This is to ensure that the animal navigates only by the use of more distant visual cues, or by the use of intra-maze cues specifically provided by the experimenter. The tank is filled to a level which forces the animal to swim actively. Normal mice and rats react […] to the swimming part of the test and will climb onto, and remain on, an escape platform from which they are removed to a heated resting cage. If the platform is visible (i.e. above the surface), animals placed in the tank will quickly learn to home in on the platform and climb out onto it. […] Swim Distances (cm) were analyzed in a 7×5 ANOVA including Groups and Blocks (1-5) as factors in the analysis, treating Blocks as a repeated measure.
# [5] = ONT/14 days GPI 1046, 90 days after transection
# [6] = ONT/28 days GPI 1046, 90 days after transection
# [7] = 28 days after 1 hour retinal ischemic episode, toluidine blue staining
smiles,measurement,setting,value
"CCC(C)(C)C(=O)C(=O)N1CCC[C@H]1C(=O)OCCCc1cccnc1 [GPI 1046, 3-(3-pyridyl)-1-propyl (2s)-1-(3,3-dimethyl-1,2-dioxopentyl)-2-pyrrolidinecarboxylate]",preservation of axons of protected neurons in the proximal stump,"[1]; Example 16: 10 mg/kg/day s.c. for 28 days, 90 days after transection, RT97",preserved the axons of virtually all protected neurons
same,ganglion cell population spared (perikaryal neuroprotection),"[1]; Example 16: 10 mg/kg/day s.c. for 28 days, sacrificed 90 days after transection",25%
same,protection of optic nerve axons,"[1]; GPI 1046 for the first 14 days after optic nerve transection, proximal stump, 90 days",5.3%
same,RGC Counts,"[1]; ONT/14 days GPI 1046, 10 mg/kg/day sc, 90 days after transection",small but not significant increase
same,% RGCs Rescued,[1]; [5],5.3%
same,% surviving RGCs with ON axons,[1]; [5],33.6%
same,Distal optic nerve stump shrinkage (cross sectional area vs sham),[1]; [5],did not protect against shrinkage of the distal stump
same,ON head area (% sham),[1]; [5],76% sham
same,Spared RGC population,[1]; [5],"20,275"
same,ON Axon density,[1]; [5],569 ± 23
same,Proximal optic nerve myelin basic protein Density,[1]; ONT/14 days GPI 1046,1.6 ± 3.0 SEM % recovery
same,increased ON axon density,[1]; ONT/14 days GPI 1046,1.5×
same,ON axon Count,[1]; ONT/14 days GPI 1046,6820
same,Distal optic nerve myelin basic protein Density (myelin level),[1]; ONT/14 days GPI 1046,slightly increase the density of myelin
same,RGC Counts,"[1]; ONT/28 days GPI 1046, 10 mg/kg/day sc, 90 days after transection",67.9 + 5.8*
same,% surviving RGCs with ON axons,[1]; [6],81.4%
same,Distal optic nerve stump shrinkage (cross sectional area vs sham),[1]; [6],prevented cross sectional shrinkage of the distal stump
same,ON head area (% sham),[1]; [6],95%* % sham
same,Spared RGC population,[1]; [6],"28,096*"
same,ON Axon density,[1]; [6],"significant increase in the density of large, and particularly medium and small caliber optic nerve axons"
same,Proximal optic nerve myelin basic protein Density,[1]; ONT/28 days GPI 1046,70 ± 6.3 SEM % recovery
same,increased ON axon density,[1]; ONT/28 days GPI 1046,5.0×
same,ON axon Count,[1]; ONT/28 days GPI 1046,"22,861*"
same,Distal optic nerve myelin basic protein Density (myelin level),[1]; ONT/28 days GPI 1046,99% myelin % myelin preservation
same,protection of retinal ganglion cells (density of fluorogold labeled cells),"[2]; 10 mg/kg s.c. 1 hour prior to ischemic episode and 10 mg/kg/day for next four days, 28 days after ischemia",noticeable protection of a large proportion of the vulnerable ganglion cell population
same,density of degenerating myelin figures,[2]; [7],dramatically decreased the density of degenerating myelin figures
same,protection of optic nerve axons from ischemic degeneration,[2]; [7],protected the majority of optic nerve axons from degeneration
same,"neovascularization in the PR, ONL, OPL and INL",retina,reduced neovascularization
same,neuronal loss in the ONL,retina,did not appear to protect against neuronal loss in the ONL
same,loss of neurons in the INL and GCL,retina; vs streptozotocin/vehicle,appeared to decrease the loss of neurons in both the INL and GCL
same,RT 97 + RGC axon density 14 days after ON transaction (36 ON axons rescued),[3],60.5% ±3.9 SEM
same,Clearance,Clearance,63.8 µL/min
same,latency in hot plate and tail flick tests,[4],improvement in latency
same,"spatial memory performance (swim distance), retention testing",aged mice,significantly enhanced spatial memory performance

# From patent US6384056B1, “Heterocyclic thioesters or ketones for vision and memory disorders” (GPI NIL Holdings, Inc., priority 1998, dated 2002)
